Assay results as given in PubChem BioAssay AID1918995 (Molecular Pharmacology Branch, DTP, NCI, 2023).
pIC50: −log10 of the molar value.

System: 324938-238-R-J1-PDC complex spheroid growth, % test/control
Assay: Anticancer human tumor 324938-238-R-J1-PDC patient-derived bladder carcinoma cell line growth inhibition [AhR]
Conditions: for pIC50: curve of first compound; for viability, T/C: stronger effect = lower value
Excerpt: Multicellular complex tumor spheroid response to aryl hydrocarbon receptor antagonists in combination with a variety of drugs and investigational agents in selected tumor cell lines
The current study was undertaken to assess response to aryl hydrocarbon receptor antagonists in combination with standard-of-care drugs and investigational agents in solid tumor complex spheroid models. Complex spheroids include a stromal component modeled by human endothelial cells (HUVEC) and fibroblasts modeled by human mesenchymal stem cells (MSCs). The concentration ranges selected for each drug and investigational agent were based upon clinically achievable concentrations if the clinical Cmax of the agent was known.
Compounds. The drugs and investigational agents: BAY 2416964 (NSC825713), GNF351 (NSC835774), CH-223191 (NSC835775), CPI-455 (NSC825282), aza-TdCyd (NSC777586), decitabine (NSC127716), belinostat (NSC758774), entinostat (NSC756642), pevonedistat (NSC761192), tazemetostat (NSC777109), talazoparib (NSC765396), olaparib (NSC753686), selinexor (NSC780203), nedisertib (M3814, NSC802822), bortezomib (NSC756655), venetoclax (NSC766270), doxorubicin (NSC123127), elimusertib (BAY189344, NSC800525), ceralasertib (AZD6738, NSC777638), TAK-243 (NSC785004), alisertib (NSC759677), etoposide (NSC141540), topotecan (NSC609699), eribulin (NSC707389), gemcitabine (NSC613327), carboplatin (NSC241240), cisplatin (NSC119875), and SN-38 (NSC673596) were obtained from the National Cancer Institute (NCI) Developmental Therapeutics Program Chemical Repository (32). The FDA-approved anticancer drug set is available from the Developmental Therapeutics Program at https://dtp.cancer.gov/organization/dscb/obtaining/available plates.htm. […] The stock solutions were prepared in dimethyl sulfoxide (DMSO, Sigma-Aldrich, St. Louis, MO, cat. D2650), except for the platinum compounds which were prepared in saline (Quality Biological, Gaithersburg, MD, cat. 114-055-101), at 800-fold the tested concentration and stored at -70 degrees C prior to their use. All drugs and investigational agents were tested over a range starting from a high concentration at or near the clinical Cmax and decreasing in half-log increments. If the clinical Cmax for an agent had not been determined, the highest concentration tested was 10 microM (Table 1).
Cell Culture. All cells were maintained in an incubator at 37 degrees C and 5% CO2 with 95% humidity. The PDC lines were cultured according to standard operating procedures established by the NCI PDMR (https://pdmr.cancer.gov). Briefly, all PDCs were thawed and cultured in Matrigel-coated flasks prepared with a working solution of 1X Ham's F-12 nutrient mix, without supplementation (Invitrogen, Waltham, MA, cat. 11765054), 100 U/mL penicillin-streptomycin (Invitrogen, cat. 15140122), and 2.5% Matrigel (Corning Inc., Corning, NY, cat. 354248) for the first three passages. All PDCs were cultured in complete DMEM/F-12 media containing advanced DMEM/F-12 (Invitrogen, cat. 12634028), 4.9% defined fetal bovine serum, heat inactivated (HyClone Laboratories Inc., Logan, UT, cat. SH30070.03HI), 389 ng/mL hydrocortisone (Sigma-Aldrich, cat. H4001), 9.7 ng/mL human EGF recombinant protein (Invitrogen, cat. PHG0313), 23.4 microg/mL adenine (Sigma-Aldrich, cat. A2786), 97.3 U/mL penicillin-streptomycin (Invitrogen, cat. 15140122), 1.9 mM L-glutamine (Invitrogen, cat. 25030081), and 9.7 microM Y-27632 dihydrochloride (Tocris Bioscience, Bristol, United Kingdom, cat. 1254). The PDCs were cultured in complete DMEM/F12 media without 10 microM Y-27632 dihydrochloride for at least two passages prior to the screen. The established cell lines NCI-H1341 and […] were cultured in DMEM/F-12, HEPES (Invitrogen, cat. 11330032), 5% defined fetal bovine serum (HyClone Laboratories Inc., cat. SH30070.03), ITS premix universal culture supplement [insulin (5 microg/mL), transferrin (5 microg/mL), and selenious acid (5 ng/mL)] […]

[1] = second compound 0.1 µM, first compound 0.0316 µM
[2] = second compound 0.1 µM, first compound 0.1 µM
[3] = second compound 0.1 µM, first compound 0.316 µM
[4] = second compound 0.1 µM, first compound 1 µM
[5] = second compound 0.1 µM, first compound 3.16 µM
[6] = second compound 0.1 µM, first compound 10 µM
[7] = second compound 0.316 µM, first compound 0.0316 µM
[8] = second compound 0.316 µM, first compound 0.1 µM
[9] = second compound 0.316 µM, first compound 0.316 µM
[10] = second compound 0.316 µM, first compound 1 µM
[11] = second compound 0.316 µM, first compound 3.16 µM
[12] = second compound 0.316 µM, first compound 10 µM
[13] = second compound 1 µM, first compound 0.0316 µM
[14] = second compound 1 µM, first compound 0.1 µM
[15] = second compound 1 µM, first compound 0.316 µM
[16] = second compound 1 µM, first compound 1 µM
[17] = second compound 1 µM, first compound 3.16 µM
[18] = second compound 1 µM, first compound 10 µM
[19] = second compound 3.16 µM, first compound 0.0316 µM
[20] = second compound 3.16 µM, first compound 0.1 µM
[21] = second compound 3.16 µM, first compound 0.316 µM
[22] = second compound 3.16 µM, first compound 1 µM
[23] = second compound 3.16 µM, first compound 3.16 µM
[24] = second compound 3.16 µM, first compound 10 µM
[25] = second compound 10 µM, first compound 0.0316 µM
[26] = second compound 10 µM, first compound 0.1 µM
[27] = second compound 10 µM, first compound 0.316 µM
[28] = second compound 10 µM, first compound 1 µM
[29] = second compound 10 µM, first compound 3.16 µM
[30] = second compound 10 µM, first compound 10 µM
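Note: spheroids exposed to agents for seven days before viability read.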

For CCc1c2c(nc3ccc(O)cc13)-c1cc3c(c(=O)n1C2)COC(=O)[C@]3(O)CC + CC(CO)NC(=O)c1cc(-c2ccc(Cl)cc2)nn(-c2cnn(C)c2)c1=O, the pIC50 (second compound 0.1 µM) was over 9.02, the pIC50 (second compound 0.316 µM) was over 9.02 and the pIC50 (second compound 1 µM) was over 9.02. For the same molecule, the pIC50 (second compound 3.16 µM) was over 9.02, the pIC50 (second compound 10 µM) was over 9.02 and the viability, T/C (second compound 0.1 µM, first compound 0.000949 µM) was 41.3%. For the same molecule, the viability, T/C (second compound 0.1 µM, first compound 0.003 µM) was 28.7%, the viability, T/C (second compound 0.1 µM, first compound 0.00949 µM) was 15.3% and the viability, T/C (second compound 0.1 µM, first compound 0.03 µM) was 17.3%. It also gave a viability, T/C (second compound 0.1 µM, first compound 0.0949 µM) of 17.4%, a viability, T/C (second compound 0.1 µM, first compound 0.3 µM) of 15.9% and a viability, T/C (second compound 0.316 µM, first compound 0.000949 µM) of 37.5%. For the same molecule, the viability, T/C (second compound 0.316 µM, first compound 0.003 µM) was 31%, the viability, T/C (second compound 0.316 µM, first compound 0.00949 µM) was 17.1% and the viability, T/C (second compound 0.316 µM, first compound 0.03 µM) was 16.9%. It also gave a viability, T/C (second compound 0.316 µM, first compound 0.0949 µM) of 15.8%, a viability, T/C (second compound 0.316 µM, first compound 0.3 µM) of 18.6% and a viability, T/C (second compound 1 µM, first compound 0.000949 µM) of 43.3%. It also gave a viability, T/C (second compound 1 µM, first compound 0.003 µM) of 29%, a viability, T/C (second compound 1 µM, first compound 0.00949 µM) of 19.6% and a viability, T/C (second compound 1 µM, first compound 0.03 µM) of 15.5%. The viability, T/C (second compound 1 µM, first compound 0.0949 µM) was 16.1%, the viability, T/C (second compound 1 µM, first compound 0.3 µM) was 15.3% and the viability, T/C (second compound 3.16 µM, first compound 0.000949 µM) was 34%. For the same molecule, the viability, T/C (second compound 3.16 µM, first compound 0.003 µM) was 28.9%, the viability, T/C (second compound 3.16 µM, first compound 0.00949 µM) was 18.9% and the viability, T/C (second compound 3.16 µM, first compound 0.03 µM) was 14.5%. It also gave a viability, T/C (second compound 3.16 µM, first compound 0.0949 µM) of 14.6%, a viability, T/C (second compound 3.16 µM, first compound 0.3 µM) of 13.8% and a viability, T/C (second compound 10 µM, first compound 0.000949 µM) of 36.3%. It also gave a viability, T/C (second compound 10 µM, first compound 0.003 µM) of 31.8%, a viability, T/C (second compound 10 µM, first compound 0.00949 µM) of 24.4% and a viability, T/C (second compound 10 µM, first compound 0.03 µM) of 17.1%. It also gave a viability, T/C (second compound 10 µM, first compound 0.0949 µM) of 18.6% and a viability, T/C (second compound 10 µM, first compound 0.3 µM) of 17%.

In the case of Nc1ccn(C2OC(CO)C(O)C2(F)F)c(=O)n1 (stereo not given) + CC(CO)NC(=O)c1cc(-c2ccc(Cl)cc2)nn(-c2cnn(C)c2)c1=O, the pIC50 (second compound 0.1 µM) was over 7.50, the pIC50 (second compound 0.316 µM) was over 7.50 and the pIC50 (second compound 1 µM) was over 7.50. For the same molecule, the pIC50 (second compound 3.16 µM) was over 7.50, the pIC50 (second compound 10 µM) was 7.41 and the viability, T/C [1] was 36.8%. The viability, T/C [2] was 24.1%, the viability, T/C [3] was 18.3% and the viability, T/C [4] was 17.9%. The viability, T/C [5] was 15.3%, the viability, T/C [6] was 12.3% and the viability, T/C [7] was 34.3%. For the same molecule, the viability, T/C [8] was 27.3%, the viability, T/C [9] was 21.7% and the viability, T/C [10] was 18.6%. For the same molecule, the viability, T/C [11] was 16%, the viability, T/C [12] was 11.6% and the viability, T/C [13] was 39%. It also gave a viability, T/C [14] of 30.7%, a viability, T/C [15] of 20.2% and a viability, T/C [16] of 19.9%. It also gave a viability, T/C [17] of 17.6%, a viability, T/C [18] of 12.9% and a viability, T/C [19] of 43.2%. The viability, T/C [20] was 38.6%, the viability, T/C [21] was 19.3% and the viability, T/C [22] was 19.8%. The viability, T/C [23] was 18.9%, the viability, T/C [24] was 11.8% and the viability, T/C [25] was 51.3%. It also gave a viability, T/C [26] of 43.1%, a viability, T/C [27] of 24.9% and a viability, T/C [28] of 21.4%. For the same molecule, the viability, T/C [29] was 19.1% and the viability, T/C [30] was 14.2%.

Work on O=C(c1cc(Cc2n[nH]c(=O)c3ccccc23)ccc1F)N1CCN(C(=O)C2CC2)CC1 + CC(CO)NC(=O)c1cc(-c2ccc(Cl)cc2)nn(-c2cnn(C)c2)c1=O yielded a pIC50 (second compound 0.1 µM) of 5.02, a pIC50 (second compound 0.316 µM) of under 5.00 and a pIC50 (second compound 1 µM) of under 5.00. It also gave a pIC50 (second compound 3.16 µM) of 5.16, a pIC50 (second compound 10 µM) of 5.29 and a viability, T/C [1] of 97.6%. It also gave a viability, T/C [2] of 104%, a viability, T/C [3] of 85.3% and a viability, T/C [4] of 75.6%. The viability, T/C [5] was 66.9%, the viability, T/C [6] was 48.6% and the viability, T/C [7] was 83.3%. It also gave a viability, T/C [8] of 81%, a viability, T/C [9] of 79.2% and a viability, T/C [10] of 69.8%. It also gave a viability, T/C [11] of 65.3%, a viability, T/C [12] of 52% and a viability, T/C [13] of 82%. For the same molecule, the viability, T/C [14] was 77.1%, the viability, T/C [15] was 75.1% and the viability, T/C [16] was 70.6%. For the same molecule, the viability, T/C [17] was 65.7%, the viability, T/C [18] was 54% and the viability, T/C [19] was 65.8%. It also gave a viability, T/C [20] of 69.8%, a viability, T/C [21] of 73.7% and a viability, T/C [22] of 57.8%. The viability, T/C [23] was 53.9%, the viability, T/C [24] was 48.4% and the viability, T/C [25] was 58.8%. The viability, T/C [26] was 63.8%, the viability, T/C [27] was 55.5% and the viability, T/C [28] was 50.5%. It also gave a viability, T/C [29] of 54.1% and a viability, T/C [30] of 47.5%.
